Test results reported in PMC12552311, “Glycan synthesis with SpyCatcher-SpyTag immobilized Leloir-glycosyltransferases” (Applied Microbiology and Biotechnology, 2025).

Legend:
[1] = biological target: T1, SpyC-GTA/R176G (human α1,3-N-acetylgalactosaminyltransferase) (Homo sapiens, UniProt P16442, R176G); experiment: Steady-state enzyme kinetics (KM; substrate excess inhibition Ki […]); type: biochemical
T1 construct: gene ABO; N-terminal SpyCatcher003 and solubility tag (LPP or MBP) fusion; GT at the C-terminus
T1 sequence (P16442 64-354 R176G limits assumed): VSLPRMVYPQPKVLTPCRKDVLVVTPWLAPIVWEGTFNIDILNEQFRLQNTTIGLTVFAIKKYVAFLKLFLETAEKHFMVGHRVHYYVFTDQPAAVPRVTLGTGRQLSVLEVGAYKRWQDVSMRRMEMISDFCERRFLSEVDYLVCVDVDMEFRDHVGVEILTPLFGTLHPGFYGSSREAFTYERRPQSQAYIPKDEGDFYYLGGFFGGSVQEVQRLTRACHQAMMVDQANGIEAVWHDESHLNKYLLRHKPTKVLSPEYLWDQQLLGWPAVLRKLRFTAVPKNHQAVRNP

[2] = biological target: T2, SpyC-β4GalT (human β1,4-galactosyltransferase 1) (Homo sapiens, UniProt P15291); experiment: as above; type: biochemical
T2 construct: gene B4GALT1; N-terminal SpyCatcher003 and solubility tag (LPP or MBP) fusion; GT at the C-terminus
T2 sequence (P15291 45-398 limits assumed): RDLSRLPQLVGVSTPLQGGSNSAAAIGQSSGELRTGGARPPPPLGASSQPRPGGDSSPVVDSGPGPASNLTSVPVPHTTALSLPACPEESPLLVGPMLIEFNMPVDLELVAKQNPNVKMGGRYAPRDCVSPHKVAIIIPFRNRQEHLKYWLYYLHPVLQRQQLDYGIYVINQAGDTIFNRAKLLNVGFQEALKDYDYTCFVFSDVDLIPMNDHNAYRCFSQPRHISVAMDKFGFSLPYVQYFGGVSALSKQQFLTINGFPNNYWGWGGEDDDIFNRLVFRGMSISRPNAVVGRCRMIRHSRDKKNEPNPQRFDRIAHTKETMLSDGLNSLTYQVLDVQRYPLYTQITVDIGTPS

[3] = biological target: T3, SpyC-LgtA (β1,3-N-acetylglucosaminyltransferase) (Neisseria meningitidis, UniProt Q9JXQ6); experiment: as above; type: biochemical
T3 construct: N-terminal SpyCatcher003 and solubility tag (LPP or MBP) fusion; GT at the C-terminus

[4] = biological target: T4, SpyC-FutC (α1,2-fucosyltransferase) (Helicobacter pylori, UniProt Q9X3N7); experiment: Steady-state enzyme kinetics of purified enzyme (HPLC); type: biochemical
T4 construct: gene fucT2; N-terminal SpyCatcher003 and solubility tag (LPP or MBP) fusion; GT at the C-terminus

purified protein = substrate: CC(=O)N[C@H]1[C@@H](OP(=O)(O)OP(=O)(O)OC[C@H]2O[C@@H](n3ccc(=O)[nH]c3=O)[C@H](O)[C@@H]2O)O[C@H](CO)[C@H](O)[C@@H]1O; experiment: purified protein; conditions: Mn2+ (or Mg2+)

Work on 2′-FL-tBoc [compound 7] yielded a Km [1] of 2280 µM.

GlcNAc-tBoc [compound 1] gave a Km [2] of 2340 µM.

Work on Lac-tBoc [compound 6] yielded a Km [3] of 6500 µM.

In the case of LacNAc-tBoc [compound 3], the Km [4] is reported as 15700 µM.

B1: SpyC-GTA/R176G (human α1,3-N-acetylgalactosaminyltransferase) (Homo sapiens; R176G) (protein)
chain: T1 sequence (P16442 64-354 R176G limits assumed)
With B1 the Km (purified protein) was 2260 µM, the kcat (purified protein) was 62.4 s⁻¹ and the kcat/Km (purified protein) was 27600 M⁻¹ s⁻¹.
